Results from patent publication US6043254A, “Indolinones having kinase-inhibiting activity” (Boehringer Ingelheim Pharma KG, priority 1998, dated 2000).

Tests used:
[1] = tested on: SK-UT-1B cells (Leimyosarcoma tumour cell line); assay: Test 2: inhibition of the proliferation of cultivated human tumour cells (14C-thymidine incorporation); type: cell-based; conditions: Skut1B, 48 hours' incubation, then 14C-thymidine for a further 24 hours, read-out: Inhibiting the proliferation of SKUT-1B cells: IC50
Description: Inhibition of the Proliferation of Cultivated Human Tumour Cells
Cells of the Leimyosarcoma tumour cell line SK-UT-1B (obtained from the American Type Culture Collection (ATCC)) were cultivated in Minimum Essential Medium with non-essential amino acids (Gibco), supplemented with sodium pyruvate (1 mmol), glutamine (2 mmol) and 10% foetal calf serum (Gibco) and harvested during the log-growth phase. Then the SK-UT-1B cells were added to Cytostar® multi-well plates (Amersham) at a density of 4000 cells per well and incubated overnight in an incubator. Various concentrations of the compounds (dissolved in DMSO; final concentration: <1%) were added to the cells. After 48 hours' incubation ^14 C-thymidine (Amersham) was added to each well and incubation was continued for a further 24 hours. The quantity of ^14 C-thymidine incorporated into the tumour cells in the presence of the inhibitor and representing the number of cells in the S phase was measured in a Wallace 1450 Microbeta Liquid Scintillation Counter. IC50 values for the inhibition of proliferation (=inhibition of incorporated ^14 C-thymidine) were calculated, correcting for the background radiation. All the measurements were done twice.

cycline D1/CDK4 = target: T1, cycline D1/CDK4 (Homo sapiens, UniProt P11802); assay: Test 1: inhibition of cycline/CDK enzyme in vitro activity; type: biochemical; conditions: GST-tagged pRB substrate; 45 minutes at 30° C.; 1% DMSO
T1 construct: His6; made in house; host or cells: High Five insect cells (BTI-TN-5B1-4), recombinant baculovirus with two promoters
Excerpt: Inhibition of cycline/CDK Enzyme in vitro Activity
High Five™ insect cells (BTI-TN-5B1-4) which had been infected with a high titre of recombinant baculovirus were used to produce active human cycline/CDK holoenzymes. By using a baculovirus vector which contained two promoters (polyhedrin enhancer promoter, P10 enhancer promoter), GST-tagged cyclines (e.g. cycline D1 or cycline D3) with the corresponding His6 -tagged CDK subunit (e.g. for CDK4 or CDK6) were expressed in the same cell. The active holoenzyme was isolated by affinity chromatography on glutathione sepharose. Recombinant GST-tagged pRB (aa 379-928) was produced in E. coli and purified by affinity chromatography on glutathione sepharose.
The substrates used for the kinase assays depended on the specific kinases. Iistone H1 (Sigma) was used as the substrate for cycline E/CDK2, cycline A/CDK2, cycline B/CDK1 and for v-cycline/CDK6. GST-tagged pRB (aa 379-928) was used as substrate for cycline D1/CDK4, cycline D3/CDK4, cycline D1/CDK6 and for cycline D3/CDK6.
Lysates of the insect cells infected with recombinant baculovirus or recombinant kinases (obtained from the lysates by purification) were incubated together with radiolabelled ATP in the presence of a suitable substrate with various concentrations of the inhibitor in a 1% DMSO solution (dimethyl sulphoxide) for 45 minutes at 30° C. The substrate proteins with associated radioactivity were precipitated with 5% TCA (trichloroacetic acid) in water-repellent PVDF multi-well microtitre plates (Millipore) or with 0.5% phosphoric acid solution on Whatman P81 filters. After the addition of scintillation liquid the radioactivity was measured in a Wallace 1450 Microbeta Liquid Scintillation Counter. For each concentration of the substance double measurements were carried out; IC50 values were calculated for the enzyme inhibition.

[2] = tested on: tumour (SK-UT-1B, or non-small cell lung tumour NCI-H460); assay: Test 3: in vivo effects on tumour-bearing nude mice; set-up: species or system nude mice (NMRI nu/nu); conditions: 100 mg/kg p.o. once a day for two weeks; male nude mice (n=9); significant, p<0.05
Description: In vivo Effects on Tumour-bearing Nude Mice
10^6 cells [SK-UT-1B, or non-small cell lung tumour NCI-H460 (obtained from ATCC)] in a volume of 0.1 ml were injected subcutaneously into male and/or female nude mice (NMRI nu/nu; 25-35 g; N=10-20); alternatively, small fragments of SK-UT-1B or NCI-H460 cell clumps were implanted subcutaneously. One to three weeks after the injection or implantation a kinase inhibitor was administered daily by oral route for a period of 2 to 4 weeks (by oesophageal tube). The size of the tumour was measured three times a week using a digital sliding gauge. The effect of a kinase inhibitor on the tumour growth was determined as a percentage inhibition compared with a control group treated with placebo.

T1 sequence (P11802 whole entry): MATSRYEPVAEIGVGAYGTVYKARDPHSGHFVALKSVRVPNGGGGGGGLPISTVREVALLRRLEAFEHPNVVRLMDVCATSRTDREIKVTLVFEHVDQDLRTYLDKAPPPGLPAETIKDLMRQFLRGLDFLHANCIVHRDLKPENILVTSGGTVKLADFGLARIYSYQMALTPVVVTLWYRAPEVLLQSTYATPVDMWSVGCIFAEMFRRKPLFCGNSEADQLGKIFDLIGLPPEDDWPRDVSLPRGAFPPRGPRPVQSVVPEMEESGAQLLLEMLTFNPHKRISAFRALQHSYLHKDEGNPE
T1 sequence (P24385 whole entry partner): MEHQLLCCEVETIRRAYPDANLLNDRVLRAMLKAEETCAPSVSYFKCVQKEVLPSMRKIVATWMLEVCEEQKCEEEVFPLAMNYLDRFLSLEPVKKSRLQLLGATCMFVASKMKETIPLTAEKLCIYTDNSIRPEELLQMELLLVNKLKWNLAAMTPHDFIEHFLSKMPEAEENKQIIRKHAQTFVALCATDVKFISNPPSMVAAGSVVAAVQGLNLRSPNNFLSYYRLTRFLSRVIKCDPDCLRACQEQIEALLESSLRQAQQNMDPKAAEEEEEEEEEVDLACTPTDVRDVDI

IC50 [1]	IC50 (cycline D1/CDK4)	SMILES	reduction in the tumour size [2]
1300 nM		O=C1Nc2ccccc2/C1=C(/Nc1ccc(-c2cn3cccnc3n2)cc1)c1ccccc1 [Example 8.3, 3-{(Z)-1-[4-(imidazo[1,2-a]pyrimidin-2-yl)anilino]-1-phenylmethylidene}-2-indolinone]	
400 nM		Cn1ccnc1-c1ccc(N/C(=C2\C(=O)Nc3ccc([N+](=O)[O-])cc32)c2ccccc2)cc1 [Example 3.12, 3-{(Z)-1-[4-(1-methyl-1H-imidazol-2-yl)anilino]-1-phenylmethylidene}-5-nitro-2-indolinone]	
340 nM	1000 nM	O=C1Nc2ccc([N+](=O)[O-])cc2/C1=C(/Nc1ccc(-c2c[nH]cn2)cc1)c1ccccc1 [Example 2.5]	around 65%

Continued, compound first:

SMILES	IC50 [1]	IC50 (cycline D1/CDK4)	reduction in the tumour size [2]
O=C1Nc2ccc([N+](=O)[O-])cc2/C1=C(/Nc1ccc(CN2C(=O)CCC2=O)cc1)c1ccccc1 [Example 4.11, 3{(Z)-1-[4-((2,5-dioxo-pyrrolidin-1-yl)methyl)anilino]-1-phenylmethylidene}-5-nitro-2-indolinone]	530 nM		
CC(=O)N1CCc2cc(N/C(=C3\C(=O)Nc4ccc([N+](=O)[O-])cc43)c3ccccc3)ccc2C1 [Example 18.2, 3-{(Z)-1-[(2-acetyl-1,2,3,4-tetrahydro-isoquinolin-6-yl)-amino]-1-phenylmethylidene}-5-nitro-2-indolinone]		1400 nM	
O=C1Nc2ccc([N+](=O)[O-])cc2/C1=C(/Nc1ccc2c(c1)CCNC2)c1ccccc1 [Example 14.1, 3-{(Z)-1-[(1,2,3,4-tetrahydro-isoquinolin-6-yl)amino]-1-phenylmethylidene}-5-nitro-2-indolinone]		150 nM	
O=C1Nc2ccc([N+](=O)[O-])cc2/C1=C(/Nc1ccc(CN2CCCC2)cc1)c1ccccc1 [Example 3.18, 3-{(Z)-1-[4-((pyrrolidin-1-yl)methyl)anilino]-1-phenylmethylidene}-5-nitro-2-indolinone]	220 nM		
O=C1Nc2ccc([N+](=O)[O-])cc2/C1=C(/Nc1ccc(CCN2CCCC2)cc1)c1ccccc1 [Example 4.9, 3-{(Z)-1-[4-(2-(pyrrolidin-1-yl)ethyl)anilino]-1-phenylmethylidene}-5-nitro-2-indolin]		55 nM	
